This passage reports GI50 and TGI results from PubChem BioAssay (NCI).

Molecules are shown by their SMILES.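 A five-concentration, 48-hour dose response in 96-well plates underlies each endpoint, interpolated linearly between surrounding concentrations. GI50 marks 50% less growth. TGI marks complete inhibition of growth.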

Test in all cases: inhibition of tumour cell growth, NCI panel, 48 h
Assay [1] deals with NCI-H522 lung.
Assay [2] concerns HCT-15 colon.
The subject of assay [3] is OVCAR-5 ovarian.
In assay [4] the test system is KM12 colon.
The test system of assay [5] is EKVX NSCLC.
Assay [6] concerns COLO 205 colon.
Assay [7] has as its system MALME-3M melanoma.
Assay [8] has as its system SF-539 CNS.
The subject of assay [9] is HCT-116 colon.
Assay [10] concerns 786-0 renal.

Consider `C=C1C(=O)O[C@H]2[C@H]1CC/C(COC(=O)/C=C\C(=O)NCc1ccc(Cn3c(=O)sn(-c4ccc(C#N)cc4)c3=O)cc1)=C\CC[C@@]1(C)O[C@@H]21`, for which the GI50 was 0.714 µM in [1]; 0.505 µM in assay [2]; 0.868 µM in assay [3]; 0.9 µM in assay [4]; 0.797 µM in assay [5]; 0.541 µM in assay [6]. In addition, the GI50 in assay [7] was 0.83 µM; in [8] it was 0.753 µM; in assay [9], 0.218 µM; in assay [10], 0.727 µM. In addition, the TGI amounted to 1.65 µM in assay [1]; 1.95 µM in assay [2]; 1.84 µM in assay [3]; 1.84 µM in assay [4]; 1.57 µM in assay [5]; 1.41 µM in [6]. In addition, the TGI in [7] came out at 1.58 µM; in assay [8], 1.43 µM; in [9], 0.956 µM; in assay [10], 1.52 µM.
Consider `Cc1ccc(N=NC(C(=O)c2ccccc2)C(=O)c2ccccc2)cc1`, for which the TGI in assay [1] is 44.3 µM; in assay [2], 43.6 µM; in assay [3], 58 µM; in [4], more than 100 µM; in [5], more than 100 µM; in [6], 52.4 µM. Further, the TGI in assay [7] is more than 100 µM; in [8], 97.3 µM; in assay [9] it was 65.6 µM; in assay [10] it was 40 µM.
For `CCC(C)(O)c1cn(-c2cccc(S(=O)(=O)O)c2)nn1` (stereo not given), the TGI in assay [1], in assay [2], in assay [3], in assay [4], in assay [5] and in [6] was more than 100 µM each time. Moreover, the TGI in assay [7], in assay [8], in assay [9] and in assay [10] was more than 100 µM throughout.
In the case of `CC(C)(C)C1=CC(=CC=C2C=CN(CCCCCCCCCCCO)C=C2)C=C(C(C)(C)C)C1=O`, the TGI in assay [1] was 1.29 µM; in [2], more than 100 µM; in assay [3], 6.52 µM; in [4], 4.4 µM; in [5] it was 5.61 µM; in assay [6], 2.82 µM. Moreover, the TGI is 3.51 µM in [7], 3.12 µM in assay [8], 3.05 µM in [9] and 3.94 µM in assay [10].
As to `Cc1[nH]c(N=Nc2ccccc2)nc1N=Nc1ccccc1`, the GI50 in [1] was 2.69 µM; in assay [2], 1.4 µM; in [3] it was 6.62 µM; in [4], 3.98 µM; in assay [5], 3.05 µM; in assay [6], 2.96 µM. The GI50 in [7] was 2.27 µM; in [8], 2.6 µM; in assay [9], 3.12 µM; in assay [10] it was 2.75 µM. For the same molecule, the TGI in [1] was more than 34.5 µM; in [2], 22.1 µM; in assay [3] it was more than 82.2 µM; in [4] it was more than 93.2 µM; in assay [5], 29.9 µM; in [6], 13.1 µM. Further, the TGI in assay [7] came out at 8.06 µM; in assay [8], 6.93 µM; in [9] it was 27.6 µM; in assay [10], 10.2 µM.
For the molecule `O=S(O)CCCCSSCCCCSSCCCCS(=O)O`, the TGI was 35.6 µM in [1]; more than 100 µM in assay [2]; more than 100 µM in [3]; more than 100 µM in assay [4]; 66.3 µM in assay [5]; 83.6 µM in [6]. In addition, the TGI was 84.2 µM in assay [7], more than 100 µM in [8], more than 100 µM in [9] and more than 100 µM in assay [10].
Turning to `Cn1cc(-c2csc(-c3cccc(F)c3)n2)c2cccnc21`, the GI50 is 15.9 µM in [1]; 14 µM in assay [2]; 14.8 µM in assay [3]; 16 µM in assay [4]; 12.5 µM in assay [5]; 15.7 µM in assay [6]. The GI50 in assay [7] was 17.6 µM; in assay [8], 15.5 µM; in [9] it was 14.2 µM; in assay [10] it was 16.1 µM. The TGI in [1] was found to be 36 µM; in assay [2], 35.7 µM; in assay [3], 31.5 µM; in assay [4], 29.5 µM; in [5], 37.6 µM; in [6] it was 30.1 µM. For the same molecule, the TGI in assay [7] came out at 45.5 µM; in assay [8], 30.1 µM; in assay [9], 27.3 µM; in assay [10] it was 30.4 µM.
In the case of `CC12CCCC(CC(=O)c3[nH]c4ccccc4c31)C2` (stereo not given), the GI50 is 0.451 µM in assay [1]; 0.413 µM in [2]; 2.82 µM in [3]; 0.641 µM in assay [4]; 1.55 µM in assay [5]; 1.29 µM in assay [6]. The GI50 is 0.916 µM in assay [7], 0.698 µM in assay [8], 0.429 µM in [9] and 0.879 µM in assay [10]. The TGI in [1] is 5.29 µM; in assay [2], 24.4 µM; in [3] it was more than 100 µM; in assay [4] it was more than 54 µM; in [5], more than 100 µM; in [6], 5.3 µM. Further, the TGI in [7] amounted to 35.6 µM; in assay [8] it was 5.75 µM; in assay [9], 18.9 µM; in assay [10] it was 18.4 µM.
For `O=C(/C=C/c1ccccc1Cl)c1ccccc1Cl`, the TGI is 38.1 µM in [1]; 28 µM in assay [2]; 46.4 µM in assay [3]; 29.3 µM in assay [4]; 44.4 µM in assay [5]; 44.8 µM in [6]. The TGI in assay [7] came to 69.4 µM; in assay [8], 36.7 µM; in assay [9], 28.5 µM; in [10], 28.8 µM.
Regarding `O=C(NC1CCCCCC1)C1C(=O)N(C2CCCCCC2)C(=O)/C1=N\O` (stereo not given), the TGI in assay [1] is 45 µM; in assay [2], more than 100 µM; in [3], more than 100 µM; in [4] it was more than 100 µM; in [5], more than 100 µM; in [6], 31.2 µM. The TGI is 68.5 µM in assay [7], 61.3 µM in assay [8], 31.8 µM in assay [9] and more than 100 µM in [10].
